In patent publication US10717716B2, “1,3,4-oxadiazole derivative compounds as histone deacetylase 6 inhibitor, and the pharmaceutical composition comprising the same” (Chong Kun Dang Pharmaceutical Corp., priority 2015, dated 2020):
pIC50: −log10 of the molar value.

Biological target: T1, human recombinant HDAC6 (Homo sapiens, UniProt Q9UBN7)
T1 construct: purchased Calbiochem 382180
T1 sequence (Q9UBN7 1-1215): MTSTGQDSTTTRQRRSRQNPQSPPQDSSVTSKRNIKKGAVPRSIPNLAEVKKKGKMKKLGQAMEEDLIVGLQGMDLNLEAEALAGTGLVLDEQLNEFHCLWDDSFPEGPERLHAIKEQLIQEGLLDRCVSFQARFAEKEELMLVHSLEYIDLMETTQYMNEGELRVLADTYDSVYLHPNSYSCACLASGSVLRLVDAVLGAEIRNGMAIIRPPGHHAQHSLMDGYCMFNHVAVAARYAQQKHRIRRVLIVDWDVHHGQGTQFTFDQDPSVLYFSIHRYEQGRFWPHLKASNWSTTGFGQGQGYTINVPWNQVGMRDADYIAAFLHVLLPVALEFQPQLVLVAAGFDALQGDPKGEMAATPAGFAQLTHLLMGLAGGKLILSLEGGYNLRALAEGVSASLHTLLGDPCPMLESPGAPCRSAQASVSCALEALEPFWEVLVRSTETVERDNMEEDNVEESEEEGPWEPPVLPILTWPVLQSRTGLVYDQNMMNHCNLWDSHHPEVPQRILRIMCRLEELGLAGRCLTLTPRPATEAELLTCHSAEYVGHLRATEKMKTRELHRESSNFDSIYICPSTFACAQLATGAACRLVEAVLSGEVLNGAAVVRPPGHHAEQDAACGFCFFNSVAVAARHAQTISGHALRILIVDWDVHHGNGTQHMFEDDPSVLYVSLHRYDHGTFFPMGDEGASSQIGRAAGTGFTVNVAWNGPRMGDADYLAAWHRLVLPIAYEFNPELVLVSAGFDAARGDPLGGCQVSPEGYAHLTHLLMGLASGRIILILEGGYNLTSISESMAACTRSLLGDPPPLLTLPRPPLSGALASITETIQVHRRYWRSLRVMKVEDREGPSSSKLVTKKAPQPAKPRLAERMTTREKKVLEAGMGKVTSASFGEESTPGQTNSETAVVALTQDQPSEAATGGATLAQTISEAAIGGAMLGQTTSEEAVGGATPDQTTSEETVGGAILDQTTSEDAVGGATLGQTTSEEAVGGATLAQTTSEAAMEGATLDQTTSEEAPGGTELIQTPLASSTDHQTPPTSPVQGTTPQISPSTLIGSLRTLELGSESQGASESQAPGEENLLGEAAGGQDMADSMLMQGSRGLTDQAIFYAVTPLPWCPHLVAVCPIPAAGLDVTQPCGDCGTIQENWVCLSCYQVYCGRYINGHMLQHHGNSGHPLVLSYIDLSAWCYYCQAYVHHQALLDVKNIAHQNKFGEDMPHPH
Test: HDAC6 enzyme activity inhibition assay (HDAC Fluorimetric Drug Discovery Kit)
Type: biochemical
Details: for HDAC6 selectivity (fold): HDAC6 over HDAC1; for pIC50: human recombinant HDAC6, same protocol as HDAC1, read-out: HDAC6
Summary of the method: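 Human recombinant HDAC1 or HDAC6 (0.3 μg) reacted with 10 μM Fluor de Lys-SIRT1 substrate and 5-fold compound dilutions for 60 min at 30 °C. Developer II added for 30 min, fluorescence read at Ex 360/Em 460; IC50 calculated from the readings.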

Row | HDAC6 selectivity (fold) | pIC50 | Compound
1 | 15 | 6.17 | Cc1nnc(N(Cc2ccc(-c3nnc(C(F)F)o3)cc2F)C(=O)N2CCS(=O)(=O)CC2)s1 [Compound 21979, N-(4-(5-(difluoromethyl)-1,3,4-oxadiazol-2-yl)-2-fluorobenzyl)-N-(5-methyl-1,3,4-thiadiazol-2-yl)thiomorpholine-4-carboxamide 1,1-dioxide]
2 | 10 | 5.99 | Cc1nnc(N(Cc2ccc(-c3nnc(C(F)F)o3)cc2F)C(=O)N2CCOCC2)s1 [Compound 21980, N-(4-(5-(difluoromethyl)-1,3,4-oxadiazol-2-yl)-2-fluorobenzyl)-N-(5-methyl-1,3,4-thiadiazol-2-yl)morpholine-4-carboxamide]
3 | 13 | 6.12 | O=C(N1CCOCC1)N(Cc1ccc(-c2nnc(C(F)F)o2)cc1F)c1nncs1 [Compound 21981, N-(4-(5-(difluoromethyl)-1,3,4-oxadiazol-2-yl)-2-fluorobenzyl)-N-(1,3,4-thiadiazol-2-yl) morpholine-4-carboxamide]
4 | 96 | 6.98 | O=C(NCCN1CCOCC1)N(Cc1ccc(-c2nnc(C(F)F)o2)cc1F)c1ccccc1 [Compound 21982, 1-(4-(5-(Difluoromethyl)-1,3,4-oxadiazol-2-yl)-2-fluorobenzyl)-3-(2-morpholinoethyl)-1-phenylurea]
5 | 107 | 7.03 | O=C(CN1CCN(CCNC(=O)N(Cc2ccc(-c3nnc(C(F)F)o3)cc2F)c2ccccc2)CC1)N1CCOCC1 [Compound 21984, 1-(4-(5-(Difluoromethyl)-1,3,4-oxadiazol-2-yl)-2-fluorobenzyl)-3-(2-(4-(2-morpholino-2-oxoethyl)piperazin-1-yl)ethyl)-1-phenylurea]
6 | 207 | 7.32 | O=C(NCCN1CCCOCC1)N(Cc1ccc(-c2nnc(C(F)F)o2)cc1F)c1ccccc1 [Compound 21986, 3-(2-(1,4-Oxazepan-4-yl)ethyl)-1-(4-(5-(difluoromethyl)-1,3,4-oxadiazol-2-yl)-2-fluorobenzyl)-1-phenylurea]
7 | 117 | 7.07 | CN1CCN(CCNC(=O)N(Cc2ccc(-c3nnc(C(F)F)o3)cc2F)c2ccccc2)CC1 [Compound 21993, 1-(4-(5-(Difluoromethyl)-1,3,4-oxadiazol-2-yl)-2-fluorobenzyl)-3-(2-(4-methylpiperazin-1-yl)ethyl)-1-phenylurea]

Continued, molecule first:

Row | Compound | HDAC6 selectivity (fold) | pIC50
8 | CCN1CCN(CCOc2ccc(N(Cc3ccc(-c4nnc(C(F)F)o4)cc3F)C(=O)N3CCS(=O)(=O)CC3)cc2)CC1 [Compound 21971, N-(4-(5-(difluoromethyl)-1,3,4-oxadiazol-2-yl)-2-fluorobenzyl)-N-(4-(2-(4-ethylpiperazin-1-yl)ethoxy)phenyl)thiomorpholine-4-carboxamide 1,1-dioxide] | 59 | 6.77
9 | CCN1CCN(CCCOc2ccc(N(Cc3ccc(-c4nnc(C(F)F)o4)cc3F)C(=O)N3CCS(=O)(=O)CC3)cc2)CC1 [Compound 21972, N-(4-(5-(difluoromethyl)-1,3,4-oxadiazol-2-yl)-2-fluorobenzyl)-N-(4-(3-(4-ethylpiperazin-1-yl)propoxy)phenyl)thiomorpholine-4-carboxamide 1,1-dioxide] | 38 | 6.58
10 | CCN1CCN(CCCCOc2ccc(N(Cc3ccc(-c4nnc(C(F)F)o4)cc3F)C(=O)N3CCS(=O)(=O)CC3)cc2)CC1 [Compound 21973, N-(4-(5-(difluoromethyl)-1,3,4-oxadiazol-2-yl)-2-fluorobenzyl)-N-(4-(4-(4-ethylpiperazin-1-yl)butoxy)phenyl)thiomorpholine-4-carboxamide 1,1-dioxide] | 39 | 6.59
11 | O=C(NCCN1CC(F)(F)C1)N(Cc1ccc(-c2nnc(C(F)F)o2)cc1F)c1ccccc1 [Compound 21983, 3-(2-(3,3-Difluoroazetidin-1-yl)ethyl)-1-(4-(5-(difluoromethyl)-1,3,4-oxadiazol-2-yl)-2-fluorobenzyl)-1-phenylurea] | 63 | 6.80
12 | O=C(NCCN1CCC[C@@H]1C(F)(F)F)N(Cc1ccc(-c2nnc(C(F)F)o2)cc1F)c1ccccc1 [Compound 21987, (R)-1-(4-(5-(difluoromethyl)-1,3,4-oxadiazol-2-yl)-2-fluorobenzyl)-1-phenyl-3-(2-(2-(trifluoromethyl)pyrrolidin-1-yl)ethyl)urea] | 47 | 6.67
13 | O=C(NCCN1CCC[C@H]1C(F)(F)F)N(Cc1ccc(-c2nnc(C(F)F)o2)cc1F)c1ccccc1 [Compound 21988, (S)-1-(4-(5-(difluoromethyl)-1,3,4-oxadiazol-2-yl)-2-fluorobenzyl)-1-phenyl-3-(2-(2-(trifluoromethyl)pyrrolidin-1-yl)ethyl)urea] | 33 | 6.52
14 | CC1CCN(CCNC(=O)N(Cc2ccc(-c3nnc(C(F)F)o3)cc2F)c2ccccc2)CC1 [Compound 21989, 1-(4-(5-(Difluoromethyl)-1,3,4-oxadiazol-2-yl)-2-fluorobenzyl)-3-(2-(4-methylpiperidin-1-yl)ethyl)-1-phenylurea] | 80 | 6.91
15 | O=C(NCCN1CCC(F)CC1)N(Cc1ccc(-c2nnc(C(F)F)o2)cc1F)c1ccccc1 [Compound 21990, 1-(4-(5-(Difluoromethyl)-1,3,4-oxadiazol-2-yl)-2-fluorobenzyl)-3-(2-(4-fluoropiperidin-1-yl)ethyl)-1-phenylurea] | 100 | 7.00
16 | O=C1CCN(CCNC(=O)N(Cc2ccc(-c3nnc(C(F)F)o3)cc2F)c2ccccc2)CC1 [Compound 21991, 1-(4-(5-(Difluoromethyl)-1,3,4-oxadiazol-2-yl)-2-fluorobenzyl)-3-(2-(4-oxopiperidin-1-yl)ethyl)-1-phenylurea] | 120 | 7.08
17 | C[C@@H]1CN(CCNC(=O)N(Cc2ccc(-c3nnc(C(F)F)o3)cc2F)c2ccccc2)C[C@H](C)N1 [Compound 21992, 1-(4-(5-(Difluoromethyl)-1,3,4-oxadiazol-2-yl)-2-fluorobenzyl)-3-(2-((3S,5R)-3,5-dimethylpiperazin-1-yl)ethyl)-1-phenylurea] | 133 | 7.12
18 | CCN1CCN(CCNC(=O)N(Cc2ccc(-c3nnc(C(F)F)o3)cc2F)c2ccccc2)CC1 [Compound 21994, 1-(4-(5-(Difluoromethyl)-1,3,4-oxadiazol-2-yl)-2-fluorobenzyl)-3-(2-(4-ethylpiperazin-1-yl)ethyl)-1-phenylurea] | 81 | 6.91
19 | CC(=O)N1CCN(CCNC(=O)N(Cc2ccc(-c3nnc(C(F)F)o3)cc2F)c2ccccc2)CC1 [Compound 21995, 3-(2-(4-Acetylpiperazin-1-yl)ethyl)-1-(4-(5-(difluoromethyl)-1,3,4-oxadiazol-2-yl)-2-fluorobenzyl)-1-phenylurea] | 111 | 7.05
20 | O=C(NCCN1CCN(CCO)CC1)N(Cc1ccc(-c2nnc(C(F)F)o2)cc1F)c1ccccc1 [Compound 21996, 1-(4-(5-(Difluoromethyl)-1,3,4-oxadiazol-2-yl)-2-fluorobenzyl)-3-(2-(4-(2-hydroxyethyl)piperazin-1-yl)ethyl)-1-phenylurea] | 108 | 7.04
21 | COCCN1CCN(CCNC(=O)N(Cc2ccc(-c3nnc(C(F)F)o3)cc2F)c2ccccc2)CC1 [Compound 21997, 1-(4-(5-(Difluoromethyl)-1,3,4-oxadiazol-2-yl)-2-fluorobenzyl)-3-(2-(4-(2-methoxyethyl)piperazin-1-yl)ethyl)-1-phenylurea] | 109 | 7.04
22 | O=C(NCCN1CCN(CCCO)CC1)N(Cc1ccc(-c2nnc(C(F)F)o2)cc1F)c1ccccc1 [Compound 21998, 1-(4-(5-(Difluoromethyl)-1,3,4-oxadiazol-2-yl)-2-fluorobenzyl)-3-(2-(4-(3-hydroxypropyl)piperazin-1-yl)ethyl)-1-phenylurea] | 153 | 7.18
